The values below come from US8969295B2, “Identifying and modulating molecular pathways that mediate nervous system plasticity” (Massachusetts Institute of Technology, priority 2006, dated 2015).

“Also recorded” adds a separate entry of the source.

In one data set the test system is PKC. Particulars: Nishiyama et al., 2003; cited from earlier work.
The next data set has as its system cGMP. Particulars: Leamey et al., 2001; cited from earlier work.
The test system of data set [1] is visual cortex gene expression. Put plainly: Microarray analysis of MD+IGF1 animals versus MD animals, all genes. It counts as in vivo, mouse. The note with it: 4 days MD + daily IP IGF1, microarray. Here is the method:
(§1) In additional experiments in which the effects of short-term (4 days from P23-27) MD were investigated, as well the effects of IGF1 infusion concurrent with MD, a total of four experimental groups were analyzed: a new group of control animals (3 samples), the ipsilateral and the contralateral cortex of mice monocularly deprived for four days (3 samples for the ipsilateral and 3 samples for the contralateral cortex), the contralateral cortex of mice that were monocularly deprived for four days and were injected IP daily with IGF1 solution (3 samples). Tissue was removed and the RNA extracted as described above, and labeled RNA was hybridized to the Affymetrix mouse genome 430.2 chip, which contains oligonucleotides that correspond to a total of 42,000 probes targeting genes and ESTs.
(§2) A method for the Significance Analysis of Microarrays to assess changes in gene expression was used^31, and the method was implemented in MATLAB (The Mathworks, Natick, Mass.). The method allows the comparison of the expression level of each gene under two conditions (e.g., MD vs. control; or DR vs. control). […] Correlations between replicates were calculated as correlation coefficients (c.c.) for all conditions: control (c.c.=0.99±0.002), MD 16 days (c.c.=0.9±0.05), MD 4 days contralateral (c.c.=0.99±0.001), MD 4 days ipsilateral (0.99±0.005), MD 4 days contralateral plus IGF1 (c.c.=0.99±0.004). […]

A further data set relates to binocular portion of V1. Nature of the data set: Optical imaging of intrinsic signals in V1: ocular dominance after monocular deprivation (MD) with IGF1. In kind it is in vivo, mouse. How it is done: For monocular deprivation, animals were anesthetized with avertin (0.016 ml/g) and the eyelids of one eye were sutured (at P20-22 for 7 days for imaging experiments). Before imaging, the suture was removed and the deprived eye re-opened. Only animals in which the deprivation sutures were intact and the condition of the deprived eye appeared healthy were used for the imaging session. For DR animals (aged P27-30), the procedure was the same described above, with the exception that the animals were anesthetized in darkness and not exposed to light until deeply anaesthetized; in these mice only the binocular response was evaluated and compared to that in control animals.
Mice (129/SvEv and C57B1/6) aged P26-30 were anesthetized with urethane (1.5 g/Kg) and chlorprothixene (0.2 mg), as described^84. Skin was excised and the skull exposed over V1. A custom-made attachment was used to fix the head and minimize movements. The cortex was covered with agarose solution (1.5%) and a glass cover slip. During the imaging session the animal's body temperature was kept constant with a heating blanket and the EKG monitored constantly. […]
A temporal high pass filter (135 frames) was employed to remove slow noise components, after which the temporal Fast Fourier Transform (FFT) component at the stimulus frequency ([…]) was calculated pixel by pixel from the whole set of images. […]

For data set [2], the system named is IGFBP5. Nature of the data set: Microarray analysis of MD+IGF1 animals versus MD animals. In kind it is in vivo, mouse. Particulars: 4 days MD + daily IP IGF1, contralateral cortex; P<0.01. How it is done:
as §1, §2

Another data set has as its system PI3K. The description is as above. It counts as in vivo, mouse. The note with it: 4 days MD + daily IP IGF1, contralateral cortex; P<0.01. Here is the method: as §1, §2
A further data set deals with synapsin 1. Nature of the data set: Immunostaining in V1 after MD with concurrent IGF1. It counts as in vivo, mouse. The note with it: short-term (4 days) MD + daily IP IGF1; P<0.05. Here is the method: as §1
(§3) Mice were anesthetized and transcardially perfused with a solution of 4% paraformaldehyde. The appropriate brain hemispheres were removed and equilibrated in 30% sucrose in PBS. Coronal sections containing visual cortex were cut using a freezing microtome. Immunohistochemistry for GluR1 (1:500, Upstate), IGFBP5 (1:500, USBiological), CaMK2alpha (1:500, Sigma), PhosphoCREB (1:500, Cell Signaling), activated Stat1 (1:500, Abcam), parvalbumin (1:1000, Chemicon), calretinin (1:500, Chemicon), somatostatin (1:300, Chemicon), neuropeptideY (1:400, Chemicon), synapsin 1 (1:500, Chemicon), IGF1 (1:250, Chemicon), GAD 67 (1:400, Chemicon), IGF1R (1:500, Upstate), PI3K—catalytic subunit 110 (1:400, Upstate), phosphorylated-Akt (1:250, Cell Signaling), was carried out as described elsewhere^82,83. For each staining, analysis was repeated in parallel for control and deprived animals. Experiments were carried out at least on two animals for each group and repeated twice. The intensity of staining in sections from control and deprived animals was evaluated with ImageJ software (rsb.info.nih.gov/ij/). Counts of parvalbumin, calretinin, somatostatin and NPY-positive cells were performed as described elsewhere^29.
(§4) For IGF1 treatment, a solution containing GPE, the functional peptide of IGF1, was prepared as described^56: 300 μg of GPE was injected intra-peritoneally daily for the entire period of deprivation. This peptide is referred to as “IGF1” in the Results below.

Data set [3] deals with IGFBP5. Put plainly: Immunostaining in V1 after MD with concurrent IGF1. It counts as in vivo, mouse. Particulars: short-term (4 days) MD + daily IP IGF1, cortex contralateral to deprived eye. How it is done: as §1, §3, §4
The test system of a further data set is IGF1 receptor (IGF1R). Put plainly: Immunostaining in V1 after MD with concurrent IGF1. It counts as in vivo, mouse. The note with it: short-term (4 days) MD + daily IP IGF1. How it is done:
as §1, §3, §4

For data set [4], the system named is Phosphatidylinositol 3-Kinase (PI3K). Nature of the data set: Immunostaining in V1 after MD with concurrent IGF1. In kind it is in vivo, mouse. The note with it: short-term (4 days) MD + daily IP IGF1; P<0.05. Here is the method: as §1, §3, §4
The next data set concerns phosphorylated-Akt. Nature of the data set: Immunostaining in V1 after MD with concurrent IGF1. In kind it is in vivo, mouse. Particulars: short-term (4 days) MD + daily IP IGF1. How it is done: as §1, §3, §4
For another data set, the system named is ischemia in the CNS. The note with it: intra-peritoneal administration; cited from earlier work.
The conditions of data set [5]: in vivo; cited from earlier work.

For `CN(C)CCCn1cc(C2=C(c3c[nH]c4ccccc34)C(=O)NC2=O)c2ccccc21` [GF109203X], the “Effective doses in slices” value with PKC is 10 to 100 µM.

Take `O=c1onc2cnc3ccccc3n12` [ODQ]: the “effective dose for influencing axon growth” value in the data set on cGMP is recorded as “about 10 μM”.

In the case of “IGF1: GPE, the functional peptide of IGF1 (tripeptide), referred to as IGF1 in the Results of Example 4 (Insulin-like growth factor I; UniProt P05019 49-51, looked up, fragment)”, the “genes significantly altered in expression in MD+IGF1 animals compared to MD animals” value in data set [1] is “only a small fraction of genes was significantly altered”. In addition, in the data set on binocular portion of V1 (7 days MD + IGF1 i.p., n=3, P>0.2 vs control), the “shift of mean ocular dominance index across animals relative to control” value is recorded as “prevented the shift”. Besides, the “ocular dominance shift towards the open eye (ocular dominance distribution of pixels within the binocular zone)” value in the data set on binocular portion of V1 (7 days MD during critical period, 300 μg GPE intra-peritoneally daily for the period of deprivation) is “prevented the ocular dominance shift towards the open eye; also recorded: prevents the ocular dominance shift”. For the same compound, in the data set with IGFBP5 [2], the “IGFBP5 microarray expression compared to MD alone” value is “significantly downregulated”. In the data set on PI3K, the “PI3K microarray expression compared to MD alone” value is listed as “upregulated”. In the data set with synapsin 1, the “level of synapsin expression, immunostaining for synapsin 1 in V1” value was “significant increase”. Besides, the “IGFBP5 immunostaining in V1” value with IGFBP5 [3] was “no change from normal levels”. The “Expression of the IGF1 receptor (IGF1R), immunostaining in V1” value in the data set with IGF1 receptor (IGF1R) is “partially restored”. The “PI3K expression, immunostaining in V1” value in data set [4] is “fully restored”. Besides, in the data set with phosphorylated-Akt, the “Expression of phosphorylated-Akt, immunostaining in V1” value was “restored”. Also, the “effects of ischemia in the CNS” value with ischemia in the CNS is recorded as “prevents the effects of ischemia in the CNS”. Further, the “ability to cross the blood brain barrier” value in data set [5] is reported as “able to cross the blood brain barrier”.
